Test results published in PubChem BioAssay AID328 (DTP/NCI, 2004).
Several values for one entry are separate records, joined by “and”; a condition that tells them apart may be missing. Identical values can stand only once. Toxic doses and inconclusive results are not listed. How the source made its calls: active means survival T/C of 150% or more; inactive means T/C below 125% in these data.

Test system: BDF1 mice, P388 leukemia ip, median survival T/C
Assay: NCI In Vivo Anticancer Drug Screen. Data for tumor model P388 Leukemia (intraperitoneal) in B6D2F1 (BDF1) mice
Conditions: endpoint: median survival time, higher = longer survival
Outline: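 Mice carrying the transplantable tumour receive compound or vehicle. Survival is followed in each arm, and the treated measure is divided by the vehicle measure.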

[1] = dose: 12.5 mg/kg/injection, schedule: Q01DX009 (ip), vehicle: saline
[2] = dose: 25.0 mg/kg/injection, schedule: Q01DX009 (ip), vehicle: saline
[3] = dose: 100.0 mg/kg/injection, schedule: Q04DX003 (ip), vehicle: Klucel (hydroxypropylcellulose) (HPC)
[4] = dose: 200.0 mg/kg/injection, schedule: Q04DX003 (ip), vehicle: Klucel (hydroxypropylcellulose) (HPC)
[5] = dose: 400.0 mg/kg/injection, schedule: Q04DX003 (ip), vehicle: Klucel (hydroxypropylcellulose) (HPC)
[6] = dose: 200.0 mg/kg/injection, schedule: Q01DX009 (ip), vehicle: Klucel (hydroxypropylcellulose) (HPC)
[7] = dose: 50.0 mg/kg/injection, schedule: Q01DX009 (ip), vehicle: saline with Tween-80
[8] = dose: 100.0 mg/kg/injection, schedule: Q01DX009 (ip), vehicle: saline with Tween-80
[9] = dose: 200.0 mg/kg/injection, schedule: Q01DX009 (ip), vehicle: saline with Tween-80
[10] = dose: 100.0 mg/kg/injection, schedule: Q01DX009 (ip), vehicle: Klucel (hydroxypropylcellulose) (HPC)
[11] = dose: 400.0 mg/kg/injection, schedule: Q01DX009 (ip), vehicle: Klucel (hydroxypropylcellulose) (HPC)

Measured: T/C

Cc1ccc2c3csc4ccccc4c-3nc2c1
inactive: dose: 1.56 mg/kg/injection, schedule: Q01DX009 (ip), vehicle: saline 113 % of control | dose: 3.12 mg/kg/injection, schedule: Q01DX009 (ip), vehicle: saline 113 % of control | dose: 6.25 mg/kg/injection, schedule: Q01DX009 (ip), vehicle: saline 113 % of control | [1] 100 % of control and 111 % of control | dose: 18.0 mg/kg/injection, schedule: Q01DX009 (ip), vehicle: saline 118 % of control | [2] 104 % of control

N#Cc1ccc(N)c(CSc2ccccc2)c1
inactive: dose: 50.0 mg/kg/injection, schedule: Q04DX002 (ip), vehicle: saline with Tween-80 93 % of control | dose: 100.0 mg/kg/injection, schedule: Q04DX002 (ip), vehicle: saline with Tween-80 90 % of control | dose: 200.0 mg/kg/injection, schedule: Q04DX002 (ip), vehicle: saline with Tween-80 99 % of control

CCCCN1C(=O)C/C(=C2\CC(=O)N(CCCC)C2=O)C1=O
inactive: [3] 116 % of control | [4] 95 % of control | [5] 95 % of control

Cc1cc(NS(=O)(=O)c2ccccc2)ccc1NS(=O)(=O)c1ccccc1
inactive: dose: 75.0 mg/kg/injection, schedule: Q01DX009 (ip), vehicle: Klucel (hydroxypropylcellulose) (HPC) 87 % of control | [3] 104 % of control | dose: 150.0 mg/kg/injection, schedule: Q01DX009 (ip), vehicle: Klucel (hydroxypropylcellulose) (HPC) 100 % of control | [4] 100 % of control | dose: 300.0 mg/kg/injection, schedule: Q01DX009 (ip), vehicle: Klucel (hydroxypropylcellulose) (HPC) 87 % of control | [5] 95 % of control

CCOC(=O)CN1CCC2CC1c1c([nH]c3ccccc13)C21OCCO1 (stereo not given)
inactive: dose: 0.06 mg/kg/injection, schedule: Q01DX009 (ip), vehicle: saline 105 % of control | dose: 0.12 mg/kg/injection, schedule: Q01DX009 (ip), vehicle: saline 95 % of control | dose: 0.25 mg/kg/injection, schedule: Q01DX009 (ip), vehicle: saline 100 % of control | dose: 0.5 mg/kg/injection, schedule: Q01DX009 (ip), vehicle: saline 105 % of control | dose: 1.0 mg/kg/injection, schedule: Q01DX009 (ip), vehicle: saline 105 % of control | dose: 2.0 mg/kg/injection, schedule: Q01DX009 (ip), vehicle: saline 100 % of control | dose: 8.0 mg/kg/injection, schedule: Q01DX009 (ip), vehicle: saline 98 % of control | dose: 16.0 mg/kg/injection, schedule: Q01DX009 (ip), vehicle: saline 102 % of control | dose: 32.0 mg/kg/injection, schedule: Q01DX009 (ip), vehicle: saline 104 % of control

COc1cc2c(cc1OC)C(OC)N(C)c1c-2ccc2cc3c(cc12)OCO3 (stereo not given)
inactive: dose: 1.1 mg/kg/injection, schedule: Q01DX009 (ip), vehicle: water 118 % of control | dose: 1.4 mg/kg/injection, schedule: Q04DX003 (ip), vehicle: saline with Tween-80 122 % of control | dose: 50.0 mg/kg/injection, schedule: Q04DX002 (ip), vehicle: Klucel (hydroxypropylcellulose) (HPC) 106 % of control | dose: 80.0 mg/kg/injection, schedule: Q01DX009 (ip), vehicle: water 109 % of control | dose: 120.0 mg/kg/injection, schedule: Q01DX009 (ip), vehicle: water 113 % of control | dose: 180.0 mg/kg/injection, schedule: Q01DX009 (ip), vehicle: saline with Tween-80 104 % of control
active: dose: 1.46 mg/kg/injection, schedule: Q01DX009 (ip), vehicle: saline with Tween-80 160 % of control | dose: 2.2 mg/kg/injection, schedule: Q01DX009 (ip), vehicle: saline with Tween-80 151 % of control | dose: 2.5 mg/kg/injection, schedule: Q01DX009 (ip), vehicle: water 181 % of control | dose: 3.3 mg/kg/injection, schedule: Q01DX009 (ip), vehicle: saline with Tween-80 169 % of control | dose: 4.4 mg/kg/injection, schedule: Q01DX009 (ip), vehicle: saline with Tween-80 167 % of control | dose: 5.0 mg/kg/injection, schedule: Q01DX009 (ip), vehicle: saline with Tween-80 176 % of control | dose: 5.0 mg/kg/injection, schedule: Q01DX009 (ip), vehicle: water 159 % of control and 190 % of control | dose: 5.0 mg/kg/injection, schedule: Q04DX003 (ip), vehicle: saline with Tween-80 150 % of control | dose: 6.6 mg/kg/injection, schedule: Q01DX009 (ip), vehicle: saline with Tween-80 216 % of control | dose: 10.0 mg/kg/injection, schedule: Q01DX009 (ip), vehicle: saline with Tween-80 191 % of control and 218 % of control | dose: 10.0 mg/kg/injection, schedule: Q01DX009 (ip), vehicle: saline 170 % of control | dose: 10.0 mg/kg/injection, schedule: Q01DX009 (ip), vehicle: water 177 % of control and 200 % of control | dose: 10.0 mg/kg/injection, schedule: Q04DX003 (ip), vehicle: other 163 % of control | dose: 14.6 mg/kg/injection, schedule: Q04DX003 (ip), vehicle: saline with Tween-80 168 % of control | dose: 15.0 mg/kg/injection, schedule: Q01DX009 (ip), vehicle: saline with Tween-80 188 % of control | dose: 15.0 mg/kg/injection, schedule: Q04DX003 (ip), vehicle: other 200 % of control | dose: 20.0 mg/kg/injection, schedule: Q01DX009 (ip), vehicle: saline with Tween-80 220 % of control and 165 % of control | dose: 20.0 mg/kg/injection, schedule: Q01DX009 (ip), vehicle: saline 195 % of control | dose: 20.0 mg/kg/injection, schedule: Q01DX009 (ip), vehicle: water 195 % of control and 220 % of control | dose: 20.0 mg/kg/injection, schedule: Q04DX003 (ip), vehicle: saline 165 % of control | dose: 22.0 mg/kg/injection, schedule: Q04DX003 (ip), vehicle: saline with Tween-80 168 % of control | dose: 33.0 mg/kg/injection, schedule: Q04DX003 (ip), vehicle: saline with Tween-80 263 % of control | dose: 40.0 mg/kg/injection, schedule: Q01DX009 (ip), vehicle: saline with Tween-80 160 % of control and 175 % of control | dose: 40.0 mg/kg/injection, schedule: Q01DX009 (ip), vehicle: saline 195 % of control | dose: 40.0 mg/kg/injection, schedule: Q01DX009 (ip), vehicle: water 186 % of control and 200 % of control | dose: 40.0 mg/kg/injection, schedule: Q04DX003 (ip), vehicle: saline 170 % of control | dose: 50.0 mg/kg/injection, schedule: Q01DX009 (ip), vehicle: Klucel (hydroxypropylcellulose) (HPC) 205 % of control | dose: 50.0 mg/kg/injection, schedule: Q04DX003 (ip), vehicle: saline with Tween-80 231 % of control | dose: 52.0 mg/kg/injection, schedule: Q01DX009 (ip), vehicle: saline with Tween-80 181 % of control | dose: 80.0 mg/kg/injection, schedule: Q01DX009 (ip), vehicle: saline 180 % of control | dose: 80.0 mg/kg/injection, schedule: Q04DX003 (ip), vehicle: saline 180 % of control | dose: 100.0 mg/kg/injection, schedule: Q04DX002 (ip), vehicle: Klucel (hydroxypropylcellulose) (HPC) 172 % of control | [6] 200 % of control | dose: 400.0 mg/kg/injection, schedule: Q04DX002 (ip), vehicle: Klucel (hydroxypropylcellulose) (HPC) 190 % of control

Cc1ccc2c(c1)NC(c1ccc(C(=O)O)cc1)c1cccn1-2 (stereo not given)
inactive: [7] 86 % of control | [8] 89 % of control | [9] 91 % of control

NNC(=O)[C@H]1CC[C@H]1C(=O)NN
inactive: [2] 95 % of control | dose: 50.0 mg/kg/injection, schedule: Q01DX009 (ip), vehicle: saline 109 % of control

CC(=O)OC1(C)N=NC2(CCCCC2)O1 (stereo not given)
inactive: [7] 102 % of control | [8] 98 % of control | [9] 112 % of control

CC(C)C(C=O)C(O)(C(F)(F)F)C(F)(F)Cl (stereo not given)
inactive: [1] 95 % of control | [2] 100 % of control

C(#CSCc1ccccc1)SCc1ccccc1
inactive: [10] 105 % of control | [3] 87 % of control | [6] 100 % of control | [4] 100 % of control | [11] 100 % of control | [5] 91 % of control

Nc1nc(-c2cccnc2)cc2ccccc12
inactive: dose: 12.5 mg/kg/injection, schedule: Q04DX003 (ip), vehicle: saline with Tween-80 106 % of control | dose: 25.0 mg/kg/injection, schedule: Q04DX003 (ip), vehicle: saline with Tween-80 91 % of control

Cc1cc(N(C)C)ccc1C=O
inactive: [10] 100 % of control | [3] 100 % of control | [6] 95 % of control | [11] 109 % of control | [5] 91 % of control
